Measured values as given in PubChem BioAssay AID2060908 (Molecular Pharmacology Branch, DTP, NCI, 2025).

Test system: 186277-243-T-J2-PDC complex spheroids, viability
Assay: Anticancer human tumor 186277-243-T-J2-PDC patient-derived colon adenocarcinoma cell line growth inhibition [RAS]
Details: for IC50: curve of first compound; for viability, T/C: stronger effect = lower value
Summary of the method: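 Multi-cell-type spheroids: tumor cells plus HUVEC endothelial cells and mesenchymal stem cells. RAS-pathway inhibitors were combined with targeted agents, each dosed in half-log steps down from clinical Cmax, or from 10 microM when Cmax was unknown.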

[1] = second compound 0.00316 µM, first compound 0.000949 µM
[2] = second compound 0.00316 µM, first compound 0.003 µM
[3] = second compound 0.00316 µM, first compound 0.00949 µM
[4] = second compound 0.00316 µM, first compound 0.03 µM
[5] = second compound 0.00316 µM, first compound 0.0949 µM
[6] = second compound 0.00316 µM, first compound 0.3 µM
[7] = second compound 0.01 µM, first compound 0.000949 µM
[8] = second compound 0.01 µM, first compound 0.003 µM
[9] = second compound 0.01 µM, first compound 0.00949 µM
[10] = second compound 0.01 µM, first compound 0.03 µM
[11] = second compound 0.01 µM, first compound 0.0949 µM
[12] = second compound 0.01 µM, first compound 0.3 µM
[13] = second compound 0.0316 µM, first compound 0.000949 µM
[14] = second compound 0.0316 µM, first compound 0.003 µM
[15] = second compound 0.0316 µM, first compound 0.00949 µM
[16] = second compound 0.0316 µM, first compound 0.03 µM
[17] = second compound 0.0316 µM, first compound 0.0949 µM
[18] = second compound 0.0316 µM, first compound 0.3 µM
[19] = second compound 0.1 µM, first compound 0.000949 µM
[20] = second compound 0.1 µM, first compound 0.003 µM
[21] = second compound 0.1 µM, first compound 0.00949 µM
[22] = second compound 0.1 µM, first compound 0.03 µM
[23] = second compound 0.1 µM, first compound 0.0949 µM
[24] = second compound 0.1 µM, first compound 0.3 µM
[25] = second compound 0.316 µM, first compound 0.000949 µM
[26] = second compound 0.316 µM, first compound 0.003 µM
[27] = second compound 0.316 µM, first compound 0.00949 µM
[28] = second compound 0.316 µM, first compound 0.03 µM
[29] = second compound 0.316 µM, first compound 0.0949 µM
[30] = second compound 0.316 µM, first compound 0.3 µM
[31] = second compound 1 µM, first compound 0.000949 µM
[32] = second compound 1 µM, first compound 0.003 µM
[33] = second compound 1 µM, first compound 0.00949 µM
[34] = second compound 1 µM, first compound 0.03 µM
[35] = second compound 1 µM, first compound 0.0949 µM
[36] = second compound 1 µM, first compound 0.3 µM
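Also: spheroids exposed to compounds for 7 days before viability read.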

Compound: CC(=O)OC12COC1CC(O)C1(C)C(=O)C(O)C3=C(C)C(OC(=O)C(O)C(NC(=O)OC(C)(C)C)c4ccccc4)CC(O)(C(OC(=O)c4ccccc4)C21)C3(C)C (stereo unspecified) + C=CC(=O)N1CCN(c2nc(OCC3CCCN3C)nc3c(F)c(-c4nc(N)cc(C)c4C(F)(F)F)c(Cl)cc23)C(C)C1
- IC50 (second compound 0.00316 µM): < 31.6 nM
- IC50 (second compound 0.01 µM): < 31.6 nM
- IC50 (second compound 0.0316 µM): < 31.6 nM
- IC50 (second compound 0.1 µM): < 31.6 nM
- IC50 (second compound 0.316 µM): < 31.6 nM
- IC50 (second compound 1 µM): < 31.6 nM
- viability, T/C (second compound 0.00316 µM, first compound 0.0316 µM): 8.38%
- viability, T/C (second compound 0.00316 µM, first compound 0.1 µM): 7.03%
- viability, T/C (second compound 0.00316 µM, first compound 0.316 µM): 7.44%
- viability, T/C (second compound 0.00316 µM, first compound 1 µM): 6.91%
- viability, T/C (second compound 0.00316 µM, first compound 3.16 µM): 7.11%
- viability, T/C (second compound 0.00316 µM, first compound 10 µM): 7.02%
- viability, T/C (second compound 0.01 µM, first compound 0.0316 µM): 8.84%
- viability, T/C (second compound 0.01 µM, first compound 0.1 µM): 6.99%
- viability, T/C (second compound 0.01 µM, first compound 0.316 µM): 7.34%
- viability, T/C (second compound 0.01 µM, first compound 1 µM): 7.25%
- viability, T/C (second compound 0.01 µM, first compound 3.16 µM): 7.21%
- viability, T/C (second compound 0.01 µM, first compound 10 µM): 6.02%
- viability, T/C (second compound 0.0316 µM, first compound 0.0316 µM): 8.72%
- viability, T/C (second compound 0.0316 µM, first compound 0.1 µM): 7.79%
- viability, T/C (second compound 0.0316 µM, first compound 0.316 µM): 7.18%
- viability, T/C (second compound 0.0316 µM, first compound 1 µM): 7.01%
- viability, T/C (second compound 0.0316 µM, first compound 3.16 µM): 6.46%
- viability, T/C (second compound 0.0316 µM, first compound 10 µM): 5.97%
- viability, T/C (second compound 0.1 µM, first compound 0.0316 µM): 8.28%
- viability, T/C (second compound 0.1 µM, first compound 0.1 µM): 7.95%
- viability, T/C (second compound 0.1 µM, first compound 0.316 µM): 8.02%
- viability, T/C (second compound 0.1 µM, first compound 1 µM): 7.09%
- viability, T/C (second compound 0.1 µM, first compound 3.16 µM): 8.08%
- viability, T/C (second compound 0.1 µM, first compound 10 µM): 6.87%
- viability, T/C (second compound 0.316 µM, first compound 0.0316 µM): 8.75%
- viability, T/C (second compound 0.316 µM, first compound 0.1 µM): 8.38%
- viability, T/C (second compound 0.316 µM, first compound 0.316 µM): 10.2%
- viability, T/C (second compound 0.316 µM, first compound 1 µM): 8.18%
- viability, T/C (second compound 0.316 µM, first compound 3.16 µM): 8.14%
- viability, T/C (second compound 0.316 µM, first compound 10 µM): 6.78%
- viability, T/C (second compound 1 µM, first compound 0.0316 µM): 12%
- viability, T/C (second compound 1 µM, first compound 0.1 µM): 9.42%
- viability, T/C (second compound 1 µM, first compound 0.316 µM): 9.31%
- viability, T/C (second compound 1 µM, first compound 1 µM): 8.34%
- viability, T/C (second compound 1 µM, first compound 3.16 µM): 11.8%
- viability, T/C (second compound 1 µM, first compound 10 µM): 9.17%

Compound: CC1(C)CCC(Nc2ncc(C(F)(F)F)c(-c3c[nH]c4c(P(C)(C)=O)c(C#N)ccc34)n2)CN1 (stereo unspecified) + C=CC(=O)N1CCN(c2nc(OCC3CCCN3C)nc3c(F)c(-c4nc(N)cc(C)c4C(F)(F)F)c(Cl)cc23)C(C)C1
- IC50 (second compound 0.00316 µM): > 300 nM
- IC50 (second compound 0.01 µM): > 300 nM
- IC50 (second compound 0.0316 µM): > 300 nM
- IC50 (second compound 0.1 µM): > 300 nM
- IC50 (second compound 0.316 µM): > 300 nM
- IC50 (second compound 1 µM): > 300 nM
- viability, T/C [1]: 94.9%
- viability, T/C [2]: 98.4%
- viability, T/C [3]: 143%
- viability, T/C [4]: 66.8%
- viability, T/C [5]: 75.5%
- viability, T/C [6]: 56.9%
- viability, T/C [7]: 109%
- viability, T/C [8]: 115%
- viability, T/C [9]: 146%
- viability, T/C [10]: 58.6%
- viability, T/C [11]: 60.2%
- viability, T/C [12]: 66.4%
- viability, T/C [13]: 101%
- viability, T/C [14]: 118%
- viability, T/C [15]: 135%
- viability, T/C [16]: 85.4%
- viability, T/C [17]: 66.7%
- viability, T/C [18]: 65.9%
- viability, T/C [19]: 96.6%
- viability, T/C [20]: 120%
- viability, T/C [21]: 120%
- viability, T/C [22]: 71.4%
- viability, T/C [23]: 69.7%
- viability, T/C [24]: 63.2%
- viability, T/C [25]: 103%
- viability, T/C [26]: 96%
- viability, T/C [27]: 98.5%
- viability, T/C [28]: 82.2%
- viability, T/C [29]: 65%
- viability, T/C [30]: 62.1%
- viability, T/C [31]: 112%
- viability, T/C [32]: 102%
- viability, T/C [33]: 114%
- viability, T/C [34]: 70.8%
- viability, T/C [35]: 64.3%
- viability, T/C [36]: 68.5%

Compound: CCc1c2c(nc3ccc(O)cc13)-c1cc3c(c(=O)n1C2)COC(=O)[C@]3(O)CC + C=CC(=O)N1CCN(c2nc(OCC3CCCN3C)nc3c(F)c(-c4nc(N)cc(C)c4C(F)(F)F)c(Cl)cc23)C(C)C1
- IC50 (second compound 0.00316 µM): 18 nM
- IC50 (second compound 0.01 µM): 15.4 nM
- IC50 (second compound 0.0316 µM): 28.9 nM
- IC50 (second compound 0.1 µM): 22.6 nM
- IC50 (second compound 0.316 µM): 26.2 nM
- IC50 (second compound 1 µM): 27.5 nM
- viability, T/C [1]: 115%
- viability, T/C [2]: 94.9%
- viability, T/C [3]: 61.3%
- viability, T/C [4]: 40.9%
- viability, T/C [5]: 22.4%
- viability, T/C [6]: 14.9%
- viability, T/C [7]: 120%
- viability, T/C [8]: 87.5%
- viability, T/C [9]: 55%
- viability, T/C [10]: 40.1%
- viability, T/C [11]: 25.7%
- viability, T/C [12]: 14.2%
- viability, T/C [13]: 110%
- viability, T/C [14]: 95.6%
- viability, T/C [15]: 68.7%
- viability, T/C [16]: 56.6%
- viability, T/C [17]: 21.8%
- viability, T/C [18]: 15.6%
- viability, T/C [19]: 109%
- viability, T/C [20]: 98.1%
- viability, T/C [21]: 68.7%
- viability, T/C [22]: 46%
- viability, T/C [23]: 20.3%
- viability, T/C [24]: 13.7%
- viability, T/C [25]: 89.2%
- viability, T/C [26]: 91.9%
- viability, T/C [27]: 65.5%
- viability, T/C [28]: 51%
- viability, T/C [29]: 24.5%
- viability, T/C [30]: 17.4%
- viability, T/C [31]: 93.2%
- viability, T/C [32]: 76.1%
- viability, T/C [33]: 73%
- viability, T/C [34]: 47.1%
- viability, T/C [35]: 29%
- viability, T/C [36]: 17.5%
